Source: paper PMC7891399 (Journal of Clinical Pharmacology, 2020)
Where two headings read alike, the source gives them in different places. Marks after values point to notes of the source that are not given here.

Columns and labels:
[1] = assay type: in vivo, women; conditions: for AUC(0-t): female, human, plasma; for AUC0–24h Ratio Third Trimester/Postpartum GMR (90%CI) / Ctrough Ratio Third Trimester/Postpartum GMR (90%CI): paired data only
[2] = assay type: in vivo, women
[3] = Combined PANNA and iTAP comparison of pregnancy effect on TFV exposure; assay type: in vivo; conditions: all groups of women (HIV with r/PI, HIV without r/PI, HBV monoinfection)
[4] = healthy subjects, fed state; ref registration package; cited from earlier work
[5] = women with HBV, TDF monotherapy, paired data only

`C[C@H](Cn1cnc2c(N)ncnc21)OCP(=O)(O)O` [TFV, tenofovir] gave an AUC(0-t) ([1]; oral) of 1840 ng·h/mL, an AUC(0-t) ([1]; oral, AUC0–24h Postpartum GM (95%CI), women with HIV, all patients (n = 59), postpartum) of 2840 ng·h/mL and an AUC(0-t) ([1]; po) of 1860 ng·h/mL. The “Ctrough Postpartum GM (95%CI)” value ([1]; women with HIV on non-r/PI (n = 27), postpartum) was 0.056 (0.050–0.064) µg/mL, the “Ctrough Third Trimester GM (95%CI)” value ([1]; women with HIV on non-r/PI (n = 27)) was 0.038 (0.033–0.043) µg/mL and the “AUC0–24h Ratio Third Trimester/Postpartum GMR (90%CI)” value ([1]; women with HIV on non-r/PI) was 0.74 (0.68–0.82). The “Ctrough Ratio Third Trimester/Postpartum GMR (90%CI)” value ([1]; women with HIV on non-r/PI) was 0.68 (0.62–0.75), the “Ctrough decrease by pregnancy, on average” value (“Ctrough decrease” for short) ([1]; women with HIV on non-r/PI-based regimens) was 32% and the “AUC0–24h lower during the third trimester compared to 1 month postpartum” value ([1]; women with HIV on non-r/PI-based regimens, intraindividual) was 26%. The “Ctrough Postpartum GM (95%CI)” value ([1]; women with HIV on r/PI (n = 32), postpartum) was 0.063 (0.053–0.075) µg/mL, the “Ctrough Third Trimester GM (95%CI)” value ([1]; women with HIV on r/PI (n = 32)) was 0.048 (0.043–0.054) ^b , ^c µg/mL and the “AUC0–24h Ratio Third Trimester/Postpartum GMR (90%CI)” value ([1]; women with HIV on r/PI) was 0.76 (0.69–0.83). The “Ctrough Ratio Third Trimester/Postpartum GMR (90%CI)” value ([1]; women with HIV on r/PI) was 0.81 (0.69–0.94), the “Ctrough decrease” value ([1]; women with HIV on r/PI-based regimens) was 19% and the “Ctrough Postpartum GM (95%CI)” value ([1]; women with HIV, all patients (n = 59), postpartum) was 0.059 (0.053–0.066) µg/mL. The “Ctrough Third Trimester GM (95%CI)” value ([1]; women with HIV, all patients (n = 59)) was 0.043 (0.039–0.047) µg/mL, the “AUC0–24h Ratio Third Trimester/Postpartum GMR (90%CI)” value ([1]; women with HIV, all patients) was 0.75 (0.70–0.80) and the “Ctrough Ratio Third Trimester/Postpartum GMR (90%CI)” value ([1]; women with HIV, all patients) was 0.74 (0.67–0.81). For the same compound, the AUC(0-t) ([2]; female, human, plasma, po) was 2350 ng·h/mL, the “Ctrough decrease” value ([2]; women with HBV) was 31% and the “AUC0–24h lower during the third trimester compared to 1 month postpartum” value ([2]; women with HBV receiving TDF monotherapy, intraindividual) was 21%. The “Ctrough Postpartum GM (95%CI)” value ([2]; women with HBV, TDF monotherapy (n = 137), 1 month postpartum) was 0.058 (0.055–0.061) µg/mL, the “Ctrough Third Trimester GM (95%CI)” value ([2]; women with HBV, TDF monotherapy (n = 137), third trimester (32 weeks)) was 0.039 (0.038–0.042) µg/mL and the “AUC0–24h Ratio Third Trimester/Postpartum GMR (90%CI)” value [2, 5] was 0.79 (0.78–0.80). The “Ctrough Ratio Third Trimester/Postpartum GMR (90%CI)” value [2, 5] was 0.69 (0.68–0.71), the “TFV exposure decrease during the third trimester of pregnancy” value [3] was “approximately 25%” and the “mean AUC0–24h” value [4] was 2460 ± 830 ng·h/mL.
